Results as given in ChEMBL document CHEMBL3351798, “Discovery of the CCR1 antagonist, BMS-817399, for the treatment of rheumatoid arthritis” (J Med Chem, 2014).

Legend:
[1] = Metabolic stability in human liver microsomes assessed as compound remaining at 0.5 uM after 60 mins by UV-LC/MS analysis; assay type: ADME; conditions: read-out: Stability
[2] = target: T1, Nuclear receptor subfamily 1 group I member 2 (Homo sapiens, UniProt O75469); experiment: Transactivation of human full-length PXR transfected in human HepG2 cells after 24 hrs by luciferase reporter gene assay; assay type: cell-based; conditions: for EC20: human, hepg2, 24 h
T1 sequence (O75469 whole entry): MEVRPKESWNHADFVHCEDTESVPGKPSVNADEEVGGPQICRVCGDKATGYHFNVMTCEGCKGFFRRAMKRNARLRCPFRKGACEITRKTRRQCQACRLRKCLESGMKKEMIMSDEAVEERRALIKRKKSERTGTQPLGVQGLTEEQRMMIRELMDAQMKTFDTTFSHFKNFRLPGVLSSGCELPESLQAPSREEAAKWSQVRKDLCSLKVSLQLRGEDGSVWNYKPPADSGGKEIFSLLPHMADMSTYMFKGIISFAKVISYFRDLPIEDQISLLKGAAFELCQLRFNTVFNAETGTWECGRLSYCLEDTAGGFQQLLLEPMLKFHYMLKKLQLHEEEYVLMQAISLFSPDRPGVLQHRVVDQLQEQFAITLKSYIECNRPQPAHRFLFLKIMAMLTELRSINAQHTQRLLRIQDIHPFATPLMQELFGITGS

[3] = Metabolic stability in rat liver microsomes assessed as compound remaining at 0.5 uM after 60 mins by UV-LC/MS analysis; assay type: ADME; conditions: read-out: Stability
[4] = Metabolic stability in mouse liver microsomes assessed as compound remaining at 0.5 uM after 60 mins by UV-LC/MS analysis; assay type: ADME; conditions: read-out: Stability
[5] = target: T2, C-C chemokine receptor type 1 (Homo sapiens, UniProt P32246); experiment: Displacement of [125I]MIP-1alpha from CCR1 in human THP1 cells; assay type: cell-based, THP-1
T2 sequence (P32246 whole entry): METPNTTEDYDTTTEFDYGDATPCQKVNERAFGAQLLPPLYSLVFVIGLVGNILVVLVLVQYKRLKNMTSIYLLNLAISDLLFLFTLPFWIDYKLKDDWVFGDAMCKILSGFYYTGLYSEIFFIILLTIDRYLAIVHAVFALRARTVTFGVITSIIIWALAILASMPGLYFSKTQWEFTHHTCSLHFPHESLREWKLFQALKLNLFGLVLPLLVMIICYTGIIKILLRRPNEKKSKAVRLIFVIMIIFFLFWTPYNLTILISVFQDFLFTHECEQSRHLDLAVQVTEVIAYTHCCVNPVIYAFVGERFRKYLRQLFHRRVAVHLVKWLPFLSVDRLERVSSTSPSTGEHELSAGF

[6] = Metabolic stability in human liver microsomes assessed as compound remaining at 3 uM after 60 mins by UV-LC/MS analysis; assay type: ADME; conditions: read-out: Stability
[7] = Metabolic stability in rat liver microsomes assessed as compound remaining at 3 uM after 60 mins by UV-LC/MS analysis; assay type: ADME; conditions: read-out: Stability
[8] = Metabolic stability in mouse liver microsomes assessed as compound remaining at 3 uM after 60 mins by UV-LC/MS analysis; assay type: ADME; conditions: read-out: Stability

SMILES | remaining at 1 h, 0.5 µM [1] | EC50 [2] | remaining at 1 h, 0.5 µM [3] | remaining at 1 h, 0.5 µM [4] | IC50 [5] | remaining at 1 h, 3 µM [6] | remaining at 1 h, 3 µM [7] | remaining at 1 h, 3 µM [8] | EC20 [2]
CC(C)[C@@H](NC(=O)NC[C@@H](C)O)C(=O)N1CC[C@](O)(c2ccc(Cl)cc2)C(C)(C)C1 | 88% | > 25000 nM | 78% | 86% | 2 nM |  |  |  | 
CC(C)[C@@H](NC(=O)N[C@H]1CC[C@H](O)C1)C(=O)N1CC[C@](O)(c2ccc(Cl)cc2)C(C)(C)C1 |  | 5700 nM |  |  | 3 nM | 99% | 96% | 100% | 
CC(C)[C@@H](NC(=O)N[C@H]1CC[C@@H](O)C1)C(=O)N1CC[C@](O)(c2ccc(Cl)cc2)C(C)(C)C1 |  | 19000 nM |  |  | 3 nM | 92% | 83% | 100% | 
CC(C)[C@@H](NC(=O)CC(C)(C)O)C(=O)N1CC[C@](O)(c2ccc(Cl)cc2)C(C)(C)C1 |  | 2300 nM |  |  | 3 nM | 100% | 84% | 100% | 
CC(C)[C@@H](NC(=O)N[C@@H]1CC[C@H](O)C1)C(=O)N1CC[C@](O)(c2ccc(Cl)cc2)C(C)(C)C1 |  | > 50000 nM |  |  | 2 nM | 76% | 75% | 86% | 
CC(C)[C@@H](NC(=O)C[C@H](C)O)C(=O)N1CC[C@](O)(c2ccc(Cl)cc2)C(C)(C)C1 |  |  |  |  | 11 nM |  |  |  | 
CC(C)[C@@H](NC(=O)N1CCCC1)C(=O)N1CC[C@](O)(c2ccc(Cl)cc2)C(C)(C)C1 |  |  |  |  | 9 nM | 2% | 11% | 19% | 800 nM
CC(C)[C@@H](NC(=O)Nc1ccccc1)C(=O)N1CC[C@](O)(c2ccc(Cl)cc2)C(C)(C)C1 |  |  |  |  | 20 nM |  |  |  | 
CC[C@H](C)NC(=O)N[C@@H](C(=O)N1CC[C@](O)(c2ccc(Cl)cc2)C(C)(C)C1)C(C)C |  |  |  |  | 2 nM | 65% | 89% | 87% | 8700 nM
CC(C)[C@@H](NC(=O)C[C@@H](C)O)C(=O)N1CC[C@](O)(c2ccc(Cl)cc2)C(C)(C)C1 |  | 7800 nM |  |  | 2 nM | 87% | 79% | 85% | 
CC(C)[C@@H](NC(=O)N[C@@H]1CC[C@@H](O)C1)C(=O)N1CC[C@](O)(c2ccc(Cl)cc2)C(C)(C)C1 |  | > 50000 nM |  |  | 4 nM | 100% | 84% | 100% | 
CC(C)[C@@H](NC(=O)NCc1ccccc1)C(=O)N1CC[C@](O)(c2ccc(Cl)cc2)C(C)(C)C1 |  |  |  |  | 1 nM | 3% | 1% | 2% | 2200 nM
CC(C)[C@@H](NC(=O)CCC(C)(C)O)C(=O)N1CC[C@](O)(c2ccc(Cl)cc2)C(C)(C)C1 | 91% | 25000 nM | 35% | 74% | 2 nM |  |  |  | 
CC[C@@H](C)NC(=O)N[C@@H](C(=O)N1CC[C@](O)(c2ccc(Cl)cc2)C(C)(C)C1)C(C)C |  |  |  |  | 3 nM | 59% | 85% | 72% | 5200 nM
CC(C)[C@@H](NC(=O)NC1CCCC1)C(=O)N1CC[C@](O)(c2ccc(Cl)cc2)C(C)(C)C1 |  |  |  |  | 2 nM | 77% | 57% | 68% | 7100 nM
CC(C)[C@@H](NC(=O)NC[C@H](C)O)C(=O)N1CC[C@](O)(c2ccc(Cl)cc2)C(C)(C)C1 | 88% | > 25000 nM | 79% | 95% | 2 nM |  |  |  | 
